Legend:
Assay in all cases: relative viability (nuclei count vs DMSO), 5 days (fraction); higher = more cells survive
NCI-H647 = tested on: NCI-H647
Procedure, shortened: (§1)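 Medians of duplicate plates are given as relative viability. That measure is the nuclei count in treated wells divided by the count in vehicle wells. Counts were taken on 4× images of lung cancer cell lines in 1536-well plates, 5 days after pin-tool dosing the day after seeding with one drug alone or a fixed anchor-drug dose plus five library-drug doses (not always all listed) in √10 steps.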

H3255 = tested on: H3255
Procedure, shortened: as §1

NCI-H2347 = tested on: NCI-H2347
Procedure, shortened: as §1

NCI-H520 = tested on: NCI-H520
Procedure, shortened: as §1

RERF-LC-KJ = tested on: RERF-LC-KJ
Procedure, shortened: as §1

PC-14 = tested on: PC-14
Procedure, shortened: as §1

HCC-827 = tested on: HCC-827
Procedure, shortened: as §1

201T = tested on: 201T
Procedure, shortened: as §1

NCI-H2126 = tested on: NCI-H2126
Procedure, shortened: as §1

COR-L 105 = tested on: COR-L 105
Procedure, shortened: as §1

ChaGo-K-1 = tested on: ChaGo-K-1
Procedure, shortened: as §1

Question: With COc1cc2nccc(Oc3ccc(NC(=O)Nc4cc(C)on4)c(Cl)c3)c2cc1OC [Tivozanib] + CCNC(=O)c1noc(-c2cc(C(C)C)c(O)cc2O)c1-c1ccc(CN2CCOCC2)cc1 [Luminespib] (partner 0.01 µM) as the compound, how does the relative viability (NCI-H647; first compound 0.005 µM) read?
Answer: The relative viability was 0.156.

Question: And the relative viability (NCI-H647; first compound 0.01581 µM)?
Answer: Its relative viability is 0.527.

Question: What about the relative viability (NCI-H647; first compound 0.05 µM) of the same compound?
Answer: Its relative viability is 0.401.

Question: What about the relative viability (NCI-H647; first compound 0.1581 µM) of the same compound?
Answer: The relative viability was 0.257.

Question: What about the relative viability (NCI-H647; first compound 0.5 µM) of the same compound?
Answer: The relative viability was 0.148.

Question: And the relative viability (H3255; first compound 0.005 µM)?
Answer: The relative viability was 0.69.

Question: And the relative viability (H3255; first compound 0.01581 µM)?
Answer: Its relative viability is 0.851.

Question: What about the relative viability (H3255; first compound 0.05 µM) of the same compound?
Answer: The relative viability was 0.821.

Question: And the relative viability (H3255; first compound 0.1581 µM)?
Answer: Its relative viability is 0.704.

Question: And the relative viability (H3255; first compound 0.5 µM)?
Answer: Its relative viability is 0.681.

Question: What about the relative viability (NCI-H2347; first compound 0.01581 µM) of the same compound?
Answer: The relative viability was 0.488.

Question: And the relative viability (NCI-H2347; first compound 0.05 µM)?
Answer: Its relative viability is 0.886.

Question: And the relative viability (NCI-H2347; first compound 0.5 µM)?
Answer: The relative viability was 0.249.

Question: And the relative viability (NCI-H520; first compound 0.005 µM)?
Answer: Its relative viability is 0.287.

Question: And the relative viability (NCI-H520; first compound 0.01581 µM)?
Answer: Its relative viability is 0.219.

Question: And the relative viability (NCI-H520; first compound 0.05 µM)?
Answer: Its relative viability is 0.222.

Question: And the relative viability (NCI-H520; first compound 0.1581 µM)?
Answer: The relative viability was 0.328.

Question: What about the relative viability (NCI-H520; first compound 0.5 µM) of the same compound?
Answer: The relative viability was 0.245.

Question: What about the relative viability (RERF-LC-KJ; first compound 0.005 µM) of the same compound?
Answer: Its relative viability is 1.16.

Question: And the relative viability (RERF-LC-KJ; first compound 0.01581 µM)?
Answer: Its relative viability is 1.29.

Question: And the relative viability (RERF-LC-KJ; first compound 0.05 µM)?
Answer: Its relative viability is 1.25.

Question: And the relative viability (RERF-LC-KJ; first compound 0.1581 µM)?
Answer: The relative viability was 1.25.

Question: What about the relative viability (RERF-LC-KJ; first compound 0.5 µM) of the same compound?
Answer: Its relative viability is 1.14.

Question: And the relative viability (PC-14; first compound 0.005 µM)?
Answer: Its relative viability is 0.115.

Question: What about the relative viability (PC-14; first compound 0.01581 µM) of the same compound?
Answer: The relative viability was 0.139.

Question: And the relative viability (PC-14; first compound 0.05 µM)?
Answer: Its relative viability is 0.187.

Question: And the relative viability (PC-14; first compound 0.1581 µM)?
Answer: Its relative viability is 0.15.

Question: And the relative viability (PC-14; first compound 0.5 µM)?
Answer: Its relative viability is 0.139.

Question: And the relative viability (HCC-827; first compound 0.005 µM)?
Answer: The relative viability was 0.588.

Question: What about the relative viability (HCC-827; first compound 0.01581 µM) of the same compound?
Answer: Its relative viability is 0.63.

Question: What about the relative viability (HCC-827; first compound 0.05 µM) of the same compound?
Answer: Its relative viability is 0.413.

Question: And the relative viability (HCC-827; first compound 0.1581 µM)?
Answer: The relative viability was 0.467.

Question: What about the relative viability (HCC-827; first compound 0.5 µM) of the same compound?
Answer: The relative viability was 0.6.

Question: And the relative viability (201T; first compound 0.005 µM)?
Answer: The relative viability was 1.06.

Question: What about the relative viability (201T; first compound 0.01581 µM) of the same compound?
Answer: The relative viability was 1.06.

Question: What about the relative viability (201T; first compound 0.05 µM) of the same compound?
Answer: The relative viability was 1.03.

Question: And the relative viability (201T; first compound 0.1581 µM)?
Answer: The relative viability was 1.06.

Question: What about the relative viability (201T; first compound 0.5 µM) of the same compound?
Answer: The relative viability was 1.06.

Question: And the relative viability (NCI-H2126; first compound 0.005 µM)?
Answer: The relative viability was 0.823.

Question: What about the relative viability (NCI-H2126; first compound 0.01581 µM) of the same compound?
Answer: The relative viability was 0.964.

Question: And the relative viability (NCI-H2126; first compound 0.05 µM)?
Answer: Its relative viability is 0.875.

Question: What about the relative viability (NCI-H2126; first compound 0.1581 µM) of the same compound?
Answer: The relative viability was 0.697.

Question: And the relative viability (NCI-H2126; first compound 0.5 µM)?
Answer: The relative viability was 0.855.

Question: What about the relative viability (COR-L 105; first compound 0.005 µM) of the same compound?
Answer: Its relative viability is 0.669.

Question: And the relative viability (COR-L 105; first compound 0.01581 µM)?
Answer: Its relative viability is 0.657.

Question: And the relative viability (COR-L 105; first compound 0.05 µM)?
Answer: The relative viability was 1.07.

Question: And the relative viability (COR-L 105; first compound 0.1581 µM)?
Answer: The relative viability was 0.734.

Question: And the relative viability (COR-L 105; first compound 0.5 µM)?
Answer: The relative viability was 0.751.

Question: And the relative viability (ChaGo-K-1; first compound 0.005 µM)?
Answer: The relative viability was 0.622.

Question: And the relative viability (ChaGo-K-1; first compound 0.01581 µM)?
Answer: The relative viability was 0.565.

Question: And the relative viability (ChaGo-K-1; first compound 0.05 µM)?
Answer: The relative viability was 0.593.

From the supplement of paper PMC10307832
